Several values for one entry are separate records, joined by “and”; a condition that tells them apart may be missing. Equal entries are not always repeated. Inconclusive results and toxic doses are left out.
Test system: P388 leukemia ip, CD2F1 mice, survival T/C
Assay: NCI In Vivo Anticancer Drug Screen. Data for tumor model P388 Leukemia (intraperitoneal) in CD2F1 (CDF1) mice
Conditions: endpoint: median survival time, higher = longer survival
Outline: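 Mice carrying the transplanted tumor received test compound or vehicle. Survival was recorded in each group, and the value is the treated-group measurement divided by that of the vehicle-treated control group.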

[1] = dose: 50.0 mg/kg/injection, schedule: Q01DX005 (ip), vehicle: saline
[2] = dose: 100.0 mg/kg/injection, schedule: Q01DX005 (ip), vehicle: saline
[3] = dose: 200.0 mg/kg/injection, schedule: Q01DX005 (ip), vehicle: saline
[4] = dose: 50.0 mg/kg/injection, schedule: Q01DX009 (ip), vehicle: Klucel (hydroxypropylcellulose) (HPC)
[5] = dose: 100.0 mg/kg/injection, schedule: Q01DX009 (ip), vehicle: Klucel (hydroxypropylcellulose) (HPC)
[6] = dose: 200.0 mg/kg/injection, schedule: Q01DX009 (ip), vehicle: Klucel (hydroxypropylcellulose) (HPC)
[7] = dose: 60.0 mg/kg/injection, schedule: Q01DX005 (ip), vehicle: saline with Tween-80
[8] = dose: 120.0 mg/kg/injection, schedule: Q01DX005 (ip), vehicle: saline with Tween-80
[9] = dose: 240.0 mg/kg/injection, schedule: Q01DX005 (ip), vehicle: saline with Tween-80
[10] = dose: 50.0 mg/kg/injection, schedule: Q01DX005 (ip), vehicle: saline with Tween-80
[11] = dose: 100.0 mg/kg/injection, schedule: Q01DX005 (ip), vehicle: saline with Tween-80
[12] = dose: 200.0 mg/kg/injection, schedule: Q01DX005 (ip), vehicle: saline with Tween-80
[13] = dose: 50.0 mg/kg/injection, schedule: Q01DX009 (ip), vehicle: saline with Tween-80
[14] = dose: 100.0 mg/kg/injection, schedule: Q01DX009 (ip), vehicle: saline with Tween-80
[15] = dose: 200.0 mg/kg/injection, schedule: Q01DX009 (ip), vehicle: saline with Tween-80

Compound: CN(CCO)c1ccc([N+](=O)[O-])c2nonc12
- T/C (dose: 25.0 mg/kg/injection, schedule: Q04DX002 (ip), vehicle: saline): 99 % of control and 103 % of control
- T/C (dose: 50.0 mg/kg/injection, schedule: Q04DX002 (ip), vehicle: saline): 99 % of control (2×) and 115 % of control
- T/C (dose: 100.0 mg/kg/injection, schedule: Q04DX002 (ip), vehicle: saline): 100 % of control and 101 % of control

Compound: NC(N)=NC(=O)c1ccccc1
- T/C [1]: 100 % of control
- T/C [2]: 100 % of control
- T/C [3]: 100 % of control

Compound: Cc1ccc(N=Cc2cccs2)cc1Cl
- T/C [4]: 94 % of control
- T/C [5]: 113 % of control
- T/C [6]: 106 % of control

Compound: NS(=O)(=O)c1cccc(NC(=O)c2ccco2)c1
- T/C [4]: 102 % of control
- T/C [5]: 101 % of control
- T/C [6]: 94 % of control

Compound: O=C=Nc1nc(Cl)c(SC(F)(F)F)c(Cl)n1
- T/C [7]: 97 % of control
- T/C [8]: 98 % of control
- T/C [9]: 108 % of control

Compound: CCN(CC)c1ccc(/C=C/c2ccnc3ccccc23)cc1
- T/C (dose: 12.5 mg/kg/injection, schedule: Q01DX009 (ip), vehicle: saline with Tween-80): 118 % of control
- T/C (dose: 12.5 mg/kg/injection, schedule: Q04DX003 (ip), vehicle: saline sonified): 100 % of control
- T/C (dose: 12.5 mg/kg/injection, schedule: Q04DX003 (ip), vehicle: saline with Tween-80): 90 % of control
- T/C (dose: 20.0 mg/kg/injection, schedule: Q04DX003 (ip), vehicle: saline): 113 % of control
- T/C (dose: 25.0 mg/kg/injection, schedule: Q01DX009 (ip), vehicle: saline with Tween-80): 104 % of control
- T/C (dose: 25.0 mg/kg/injection, schedule: Q04DX003 (ip), vehicle: saline sonified): 104 % of control
- T/C (dose: 25.0 mg/kg/injection, schedule: Q04DX003 (ip), vehicle: saline with Tween-80): 100 % of control
- T/C (dose: 40.0 mg/kg/injection, schedule: Q04DX003 (ip), vehicle: saline): 118 % of control
- T/C (dose: 50.0 mg/kg/injection, schedule: Q04DX003 (ip), vehicle: saline sonified): 109 % of control
- T/C (dose: 50.0 mg/kg/injection, schedule: Q04DX003 (ip), vehicle: saline with Tween-80): 109 % of control

Compound: CC(=O)OCC1OC(n2c(Br)nc3c(=O)[nH]c(N)nc32)C(OC(C)=O)C1OC(C)=O (stereo not drawn)
- T/C [10]: 102 % of control
- T/C [11]: 104 % of control
- T/C [12]: 107 % of control

Compound: O=S(=O)(O)CC[S][Sn]([S]CCS(=O)(=O)O)([c]1ccccc1)[c]1ccccc1
- T/C (dose: 3.75 mg/kg/injection, schedule: Q01DX005 (ip), vehicle: Klucel (hydroxypropylcellulose) (HPC)): 153 % of control

Compound: Brc1cccc[n+]1Cc1cc2ccccc2c2ccccc12
- T/C (dose: 25.0 mg/kg/injection, schedule: Q04DX002 (ip), vehicle: Klucel (hydroxypropylcellulose) (HPC)): 105 % of control
- T/C (dose: 50.0 mg/kg/injection, schedule: Q04DX002 (ip), vehicle: Klucel (hydroxypropylcellulose) (HPC)): 106 % of control
- T/C (dose: 100.0 mg/kg/injection, schedule: Q04DX002 (ip), vehicle: Klucel (hydroxypropylcellulose) (HPC)): 112 % of control

Compound: CCC1CC(O)c2c(O)c3c(c(O)c2C1O)C(=O)c1cccc(O)c1C3=O (stereo not drawn) (tested in a mixture with another compound)
- T/C (dose: 0.25 mg/kg/injection, schedule: Q04DX003 (ip), vehicle: other): 102 % of control
- T/C (dose: 30.0 micrograms/kg/injection, schedule: Q01DX009 (ip), vehicle: other): 107 % of control
- T/C (dose: 60.0 micrograms/kg/injection, schedule: Q01DX009 (ip), vehicle: other): 106 % of control
- T/C (dose: 130.0 micrograms/kg/injection, schedule: Q01DX009 (ip), vehicle: other): 98 % of control

Compound: CCCCC(CC)CCC(CC(C)C)OCCC#N (stereo not drawn)
- T/C [5]: 100 % of control
- T/C [6]: 96 % of control
- T/C (dose: 400.0 mg/kg/injection, schedule: Q01DX009 (ip), vehicle: Klucel (hydroxypropylcellulose) (HPC)): 90 % of control

Compound: O=C(c1ccccc1)C1Nc2ccc(Cl)cc2C2C=CCC12 (stereo not drawn)
- T/C [7]: 102 % of control
- T/C [8]: 94 % of control
- T/C [9]: 93 % of control

Compound: CSc1nc(N)nc2c1ncn2C1CC(O)C(CO)O1 (stereo not drawn)
- T/C (dose: 50.0 mg/kg/injection, schedule: Q04DX003 (ip), vehicle: Klucel (hydroxypropylcellulose) (HPC)): 94 % of control
- T/C (dose: 100.0 mg/kg/injection, schedule: Q04DX003 (ip), vehicle: Klucel (hydroxypropylcellulose) (HPC)): 100 % of control
- T/C (dose: 200.0 mg/kg/injection, schedule: Q04DX003 (ip), vehicle: Klucel (hydroxypropylcellulose) (HPC)): 107 % of control
- T/C (dose: 400.0 mg/kg/injection, schedule: Q04DX003 (ip), vehicle: Klucel (hydroxypropylcellulose) (HPC)): 106 % of control

Compound: COC(=O)Nc1nc2c(OC)c(OC)c(OC)cc2[nH]1
- T/C (dose: 12.5 mg/kg/injection, schedule: Q01DX005 (ip), vehicle: other): 97 % of control
- T/C (dose: 25.0 mg/kg/injection, schedule: Q01DX005 (ip), vehicle: other): 100 % of control
- T/C (dose: 50.0 mg/kg/injection, schedule: Q01DX005 (ip), vehicle: other): 100 % of control
- T/C (dose: 100.0 mg/kg/injection, schedule: Q01DX005 (ip), vehicle: other): 102 % of control

Compound: OCC[N+]12CN3CN(CN(C3)C1)C2
- T/C (dose: 25.0 mg/kg/injection, schedule: Q01DX009 (ip), vehicle: saline): 108 % of control
- T/C (dose: 50.0 mg/kg/injection, schedule: Q01DX009 (ip), vehicle: saline): 110 % of control
- T/C (dose: 100.0 mg/kg/injection, schedule: Q01DX009 (ip), vehicle: saline): 111 % of control
- T/C (dose: 178.0 mg/kg/injection, schedule: Q01DX009 (ip), vehicle: saline): 118 % of control
- T/C (dose: 200.0 mg/kg/injection, schedule: Q01DX009 (ip), vehicle: saline): 118 % of control
- T/C (dose: 266.0 mg/kg/injection, schedule: Q01DX009 (ip), vehicle: saline): 118 % of control

Compound: CCCCCCCCCCCCOC(=O)c1ccc(Cl)cc1
- T/C [13]: 87 % of control
- T/C [14]: 102 % of control
- T/C [15]: 104 % of control

Compound: COC(=O)C(=O)C1CSC2=C(CS(=O)(=O)c3ccccc32)C1=O (stereo not drawn)
- T/C [7]: 98 % of control
- T/C [8]: 104 % of control
- T/C [9]: 104 % of control

Compound: NC(=O)NCP(=O)(CNC(N)=O)CNC(N)=O
- T/C [1]: 100 % of control
- T/C [2]: 97 % of control
- T/C [3]: 95 % of control

Compound: O=C(N=C(N=C(c1ccccc1)N1CCOCC1)c1ccccc1)c1ccccc1
- T/C [13]: 106 % of control
- T/C [14]: 102 % of control
- T/C [15]: 103 % of control

Compound: CC1OC(OC2C(Oc3cc(O)c4c(c3)O[C@H](c3ccc(O)cc3)CC4=O)OC(CO)C(O)C2O)C(O)C(O)C1O (stereo partly drawn)
- T/C (dose: 50.0 mg/kg/injection, schedule: Q01DX005 (ip), vehicle: Klucel (hydroxypropylcellulose) (HPC)): 97 % of control
- T/C (dose: 100.0 mg/kg/injection, schedule: Q01DX005 (ip), vehicle: Klucel (hydroxypropylcellulose) (HPC)): 97 % of control
- T/C (dose: 200.0 mg/kg/injection, schedule: Q01DX005 (ip), vehicle: Klucel (hydroxypropylcellulose) (HPC)): 101 % of control

Compound: COc1cccc2c1C(=O)c1c(O)c3c(c(O)c1C2=O)C[C@@](O)(/C(C)=N\NC(=O)CCC(N)C(=O)O)C[C@@H]3OC1CC(N)C(O)C(C)O1 (stereo partly drawn) (tested in a mixture with another compound)
- T/C (dose: 18.75 mg/kg/injection, schedule: Q04DX003 (ip), vehicle: water): 121 % of control
- T/C (dose: 75.0 mg/kg/injection, schedule: Q04DX003 (ip), vehicle: water): 121 % of control
- T/C (dose: 300.0 mg/kg/injection, schedule: Q04DX003 (ip), vehicle: water): 163 % of control

Compound: COc1ccc2sc3cccc(NCCN(C)C)c3c(=O)c2c1
- T/C (dose: 12.5 mg/kg/injection, schedule: Q01DX005 (ip), vehicle: saline with Tween-80): 112 % of control
- T/C (dose: 25.0 mg/kg/injection, schedule: Q01DX005 (ip), vehicle: saline with Tween-80): 108 % of control
- T/C [10]: 100 % of control and 95 % of control
- T/C [11]: 98 % of control and 99 % of control
- T/C [12]: 106 % of control
- T/C (dose: 400.0 mg/kg/injection, schedule: Q01DX005 (ip), vehicle: saline with Tween-80): 98 % of control

Compound: CCOC(OCC)(c1ccccc1)N(C)C
- T/C [7]: 92 % of control
- T/C [8]: 100 % of control
- T/C [9]: 104 % of control

Compound: O=c1[nH]cnc2cc3[nH]ncc3cc12
- T/C (dose: 1.5 mg/kg/injection, schedule: Q01DX005 (ip), vehicle: saline with Tween-80): 95 % of control
- T/C (dose: 3.0 mg/kg/injection, schedule: Q01DX005 (ip), vehicle: saline with Tween-80): 87 % of control
- T/C (dose: 6.25 mg/kg/injection, schedule: Q01DX005 (ip), vehicle: saline with Tween-80): 97 % of control
- T/C [11]: 89 % of control
- T/C [12]: 88 % of control

Source: PubChem BioAssay AID330 (DTP/NCI, 2004)
